Source: US10562912B2 (C&C Research Laboratories, priority 2013, dated 2020)

How the values were obtained:
Assay type in all cases: cell-based
MDA-MB-231 = test: Cell growth inhibition assay, breast cancer cell line MDA-MB-231; conditions: Homo sapiens; MDA-MB-231 breast cancer cell line, 5,000 cells/well
LNCaP = test: Cell growth inhibition assay, prostate cancer cell line LNCaP (medium with 10 ng/mL IL-6); conditions: Homo sapiens, medium supplemented with 10 ng/mL of IL-6, 10,000 cells/well
STAT3 = molecular target: T1, STAT3 (Homo sapiens, UniProt P40763); test: STAT3 reporter gene assay (luciferase), LNCaP stable cell line (pSTAT3-TA-luc), IL-6 stimulation
T1 construct: plasmid pSTAT3-TA-luc), which contains a stably operating STAT3 promoter; endogenous in cells
T1 sequence (P40763 whole entry): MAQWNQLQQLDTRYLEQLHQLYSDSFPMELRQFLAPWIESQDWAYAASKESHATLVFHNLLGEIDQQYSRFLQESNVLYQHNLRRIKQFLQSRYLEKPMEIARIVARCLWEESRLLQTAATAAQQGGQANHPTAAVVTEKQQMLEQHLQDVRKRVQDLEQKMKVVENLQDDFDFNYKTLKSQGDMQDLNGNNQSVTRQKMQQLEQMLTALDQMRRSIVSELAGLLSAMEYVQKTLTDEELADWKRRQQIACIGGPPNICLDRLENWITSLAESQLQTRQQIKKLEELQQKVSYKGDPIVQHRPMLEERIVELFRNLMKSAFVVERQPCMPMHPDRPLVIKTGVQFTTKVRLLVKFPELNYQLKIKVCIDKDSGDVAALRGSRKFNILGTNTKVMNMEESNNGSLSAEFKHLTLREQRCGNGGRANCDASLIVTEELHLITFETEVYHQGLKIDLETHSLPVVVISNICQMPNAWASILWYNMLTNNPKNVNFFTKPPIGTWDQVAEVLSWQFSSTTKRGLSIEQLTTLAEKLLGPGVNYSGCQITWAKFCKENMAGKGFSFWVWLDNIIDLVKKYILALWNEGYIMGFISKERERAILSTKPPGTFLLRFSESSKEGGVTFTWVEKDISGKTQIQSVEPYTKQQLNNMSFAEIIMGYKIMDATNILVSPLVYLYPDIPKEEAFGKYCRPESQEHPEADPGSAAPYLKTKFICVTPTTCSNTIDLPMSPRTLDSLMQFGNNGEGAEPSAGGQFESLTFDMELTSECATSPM
Method in brief: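 Cytotoxicity was run on a duplicate plate with CellTiter-Glo, while the other plate gave luciferase read-outs from lysed LNCaP pSTAT3-TA-luc reporter cells. Cells were treated with graded compound concentrations plus IL-6 (10 ng/mL final) for 24–48 h in 3% DCC-FBS medium. Unstimulated and stimulated wells served as negative and positive controls.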

AGS = test: Cell growth inhibition assay, stomach cancer cell line AGS; conditions: Homo sapiens; AGS stomach cancer cell line, 3,000 cells/well

Row | IC50 (MDA-MB-231) [µM] | IC50 (LNCaP) [µM] | IC50 (STAT3) [µM] | IC50 (AGS) [µM] | Compound
1 | 4.2 | > 10 | 2.1 | 20.6 | CS(=O)(=O)Nc1ccc2cc(C(=O)Nc3cccc(S(=O)(=O)c4ccccc4)c3)[nH]c2c1 [Example 395, 6-(methylsulfonamido)-N-(3-(phenylsulfonyl)phenyl)-1H-indole-2-carboxamide]
2 | 2.5 | 8 | 4 | 7.3 | CS(=O)(=O)Nc1ccc2cc(C(=O)Nc3cc(OCC(F)F)cc(S(=O)(=O)c4cccc(OC(F)(F)F)c4)c3)[nH]c2c1 [Example 401, N-(3-(2,2-difluoroethoxy)-5-((3-(trifluoromethoxy)phenyl)sulfonyl)phenyl)-6-(methylsulfonamido)-1H-indole-2-carboxamide]
3 | – | > 10 | > 10 | 22 | Cn1c(C(=O)Nc2cccc(-c3ccccc3C(F)(F)F)c2)cc2cc([N+](=O)[O-])ccc21 [Example 250, 1-methyl-5-nitro-N-(2′-(trifluoromethyl)-[1,1′-biphenyl]-3-yl)-1H-indole-2-carboxamide]
4 | – | > 10 | 7.1 | 16.6 | COc1ccc(C(F)(F)F)c(-c2cccc(NC(=O)c3cc4ccc(NS(C)(=O)=O)cc4[nH]3)c2)c1 [Example 281, N-(5′-methoxy-2′-(trifluoromethyl)-[1,1′-biphenyl]-3-yl)-6-(methylsulfonamido)-1H-indole-2-carboxamide]
5 | – | > 10 | 3.6 | 35.2 | COc1cc(C#N)cc(S(=O)(=O)c2cccc(NC(=O)c3cc4ccc(NS(C)(=O)=O)cc4[nH]3)c2)c1 [Example 411, N-(3-((3-cyano-5-methoxyphenyl)sulfonyl)phenyl)-6-(methylsulfonamido)-1H-indole-2-carboxamide]
6 | – | 2.8 | 3.5 | 11 | CNS(=O)(=O)Nc1ccc2cc(C(=O)Nc3cccc(-c4ccc(F)cc4F)c3)[nH]c2c1 [Example 257, N-(2′,4′-difluoro-[1,1′-biphenyl]-3-yl)-6-((N-methylsulfamoyl)amino)-1H-indole-2-carboxamide]
7 | – | > 10 | 6.3 | 6.9 | O=C(Nc1cccc(-c2ccccc2C(F)(F)F)c1)c1cc2ccc([N+](=O)[O-])cc2[nH]1 [Example 226, 6-nitro-N-(2′-(trifluoromethyl)-[1,1′-biphenyl]-3-yl)-1H-indole-2-carboxamide]
8 | – | > 10 | > 10 | > 50 | O=C(Nc1cccc(-c2ccc(F)cc2F)c1)c1nc2cc([N+](=O)[O-])ccc2[nH]1 [Example 233, N-(2′,4′-difluoro-[1,1′-biphenyl]-3-yl)-5-nitro-1H-benzo[d]imidazole-2-carboxamide]
9 | – | > 10 | > 10 | > 50 | CC(C)(Oc1ccc2cc(C(=O)Nc3cccc(-c4ccc(F)cc4F)c3)[nH]c2c1)C(=O)O [Example 254, 2-((2-((2′,4′-difluoro-[1,1′-biphenyl]-3-yl)carbamoyl)-1H-indol-6-yl)oxy)-2-methylpropanoic acid]
10 | – | > 10 | 2.4 | 24.2 | COc1cccc(S(=O)(=O)c2cccc(NC(=O)c3cc4ccc(NS(C)(=O)=O)cc4[nH]3)c2)n1 [Example 408, N-(3-((6-methoxypyridin-2-yl)sulfonyl)phenyl)-6-(methylsulfonamido)-1H-indole-2-carboxamide]
11 | – | 2.7 | 1.1 | 17.6 | O=C(Nc1cccc(-c2ccccc2C(F)(F)F)c1)C1Cc2ccc([N+](=O)[O-])cc2N1 (stereo not drawn) [Example 230, 6-nitro-N-(2′-(trifluoromethyl)-[1,1′-biphenyl]-3-yl)indoline-2-carboxamide]
12 | – | 3 | 2.6 | 25.9 | CS(=O)(=O)Nc1ccc2cc(C(=O)Nc3cc(C#N)cc(-c4ccc(F)cc4C(F)(F)F)c3)[nH]c2c1 [Example 315, N-(5-cyano-4′-fluoro-2′-(trifluoromethyl)-[1,1′-biphenyl]-3-yl)-6-(methylsulfonamido)-1H-indole-2-carboxamide]
13 | – | > 10 | 7 | 20.9 | CS(=O)(=O)Nc1ccc2cc(C(=O)Nc3cccc(-c4ncccc4C(F)(F)F)c3)[nH]c2c1 [Example 290, 6-(methylsulfonamido)-N-(3-(3-(trifluoromethyl)pyridin-2-yl)phenyl)-1H-indole-2-carboxamide]
14 | – | > 10 | > 10 | 43.7 | O=C(Nc1cccc(-c2cccnc2C(F)(F)F)c1)c1cc2ccc([N+](=O)[O-])cc2[nH]1 [Example 292, 6-nitro-N-(3-(2-(trifluoromethyl)pyridin-3-yl)phenyl)-1H-indole-2-carboxamide]
15 | – | > 10 | > 10 | 41.4 | Cc1c(C(=O)Nc2cccc(-c3ccccc3C(F)(F)F)c2)[nH]c2ccc([N+](=O)[O-])cc12 [Example 228, 3-methyl-5-nitro-N-(2′-(trifluoromethyl)-[1,1′-biphenyl]-3-yl)-1H-indole-2-carboxamide]
16 | – | > 10 | > 10 | 17.9 | NS(=O)(=O)Nc1ccc2cc(C(=O)Nc3cccc(-c4ccc(F)cc4F)c3)[nH]c2c1 [Example 274, N-(2′,4′-difluoro-[1,1′-biphenyl]-3-yl)-6-(sulfamoylamino)-1H-indole-2-carboxamide]
17 | – | 4.1 | 2.2 | 10 | O=C(Nc1cccc(-c2ccc(F)cc2F)c1)c1cc2ccc(NS(=O)(=O)CC(F)(F)F)cc2[nH]1 [Example 273, N-(2′,4′-difluoro-[1,1′-biphenyl]-3-yl)-6-(2,2,2-trifluoroethylsulfonamido)-1H-indole-2-carboxamide]
18 | – | > 10 | > 10 | 37 | O=C(Nc1cccc(-c2ccc(F)cc2C(F)(F)F)c1)c1nc2cc([N+](=O)[O-])ccc2[nH]1 [Example 235, N-(4′-fluoro-2′-(trifluoromethyl)-[1,1′-biphenyl]-3-yl)-5-nitro-1H-benzo[d]imidazole-2-carboxamide]
19 | – | 8.6 | 2.4 | 14.6 | CS(=O)(=O)Nc1ccc2cc(C(=O)Nc3cccc(S(=O)(=O)c4cccc(Cl)c4)c3)[nH]c2c1 [Example 405, N-(3-((3-chlorophenyl)sulfonyl)phenyl)-6-(methylsulfonamido)-1H-indole-2-carboxamide]
20 | – | 8.6 | 5.9 | 26.1 | Nc1ccc2cc(C(=O)Nc3cccc(-c4ccc(F)cc4F)c3)[nH]c2c1 [Example 271, 6-amino-N-(2′,4′-difluoro-[1,1′-biphenyl]-3-yl)-1H-indole-2-carboxamide]
21 | – | > 10 | > 10 | 17.6 | CS(=O)(=O)Nc1ccc2cc(C(=O)Nc3cccc(S(=O)(=O)c4cccc(C#N)n4)c3)[nH]c2c1 [Example 406, N-(3-((6-cyanopyridin-2-yl)sulfonyl)phenyl)-6-(methylsulfonamido)-1H-indole-2-carboxamide]

Row | Compound | IC50 (MDA-MB-231) [µM] | IC50 (LNCaP) [µM] | IC50 (STAT3) [µM] | IC50 (AGS) [µM]
22 | CC(C)COc1cc(NC(=O)c2cc3ccc(NS(C)(=O)=O)cc3[nH]2)cc(-c2ccc(F)cc2F)c1 [Example 367, N-(2′,4′-difluoro-5-isobutoxy-[1,1′-biphenyl]-3-yl)-6-(methylsulfonamido)-1H-indole-2-carboxamide] | 1.1 | 7.4 | 0.38 | 9.5
